According to patent US9040663B2, “Melanocortin receptor-specific peptides” (AstraZeneca AB, priority 2009, dated 2015):
Where two headings read alike, the source gives them in different places. Positions of bridges follow the written chain, without caps; N, C: chain ends. Non-standard residues stand in square brackets, D forms with d. Residues, ends and D or L forms follow the SMILES beside them. dPhe(4-CN) = N#Cc1ccc(C[C@@H](N)C(=O)O)cc1; dPhe(3-Cl) = N[C@H](Cc1cccc(Cl)c1)C(=O)O; dPhe(2-F) = N[C@H](Cc1ccccc1F)C(=O)O; Orn = NCCC[C@H](N)C(=O)O

Tests used:
[1] = target: MC1-R; test: Competitive inhibition binding assay using [I125]-NDP-α-MSH, MC1-R; conditions: membranes of B-16 mouse melanoma cells (endogenous MC1-R), in some instances HEK-293 hMC1-R
Description: 7.1 Competitive Inhibition Assay using [I^125]-NDP-α-MSH.
A competitive inhibition binding assay was performed for exemplified peptides according to the invention using membrane homogenates prepared from HEK-293 cells that express recombinant hMC4-R, hMC3-R, or hMC5-R, and from B-16 mouse melanoma cells (containing endogenous MC1-R). In some instances, HEK-293 cells that express recombinant hMC1-R were employed. Assays were performed in 96 well GF/B Millipore multiscreen filtration plates (MAFB NOB10) pre-coated with 0.5% bovine serum albumin (Fraction V). Membrane homogenates were incubated with 0.2 nM (for hMC4-R) 0.4 nM (for MC3-R and MC5-R) or 0.1 nM (for mouse B16 MC1-R or hMC1-R) [I^125]-NDP-α-MSH (Perkin Elmer) and increasing concentrations of test peptides of the present invention in buffer containing 25 mM HEPES buffer (pH 7.5) with 100 mM NaCl, 2 mM CaCl2, 2 mM MgCl2, 0.3 mM 1,10-phenanthroline, and 0.2% bovine serum albumin. After incubation for 60 minutes at 37° C., the assay mixture was filtered and the membranes washed three times with ice-cold buffer. Filters were dried and counted in a gamma counter for bound radioactivity. […] Maximal specific binding (100%) was defined as the difference in radioactivity (cpm) bound to cell membranes in the absence and presence of 1 μM NDP-α-MSH. […] Each assay was conducted in triplicate and the actual mean values are described, with results less than 0% reported as 0%. Ki values for test peptides of the present invention were determined using Graph-Pad Prism® curve-fitting software.

[2] = target: T1, hMC4-R (Homo sapiens (Human), UniProt P32245); test: High and low density hMC4-R functional assay (cAMP, HEK293-T-REx-MC4-R cells); assay type: cell-based; conditions: for Emax: NDP-α-MSH = 100%, read-out: Intrinsic Activity (%)
T1 sequence (P32245 whole entry): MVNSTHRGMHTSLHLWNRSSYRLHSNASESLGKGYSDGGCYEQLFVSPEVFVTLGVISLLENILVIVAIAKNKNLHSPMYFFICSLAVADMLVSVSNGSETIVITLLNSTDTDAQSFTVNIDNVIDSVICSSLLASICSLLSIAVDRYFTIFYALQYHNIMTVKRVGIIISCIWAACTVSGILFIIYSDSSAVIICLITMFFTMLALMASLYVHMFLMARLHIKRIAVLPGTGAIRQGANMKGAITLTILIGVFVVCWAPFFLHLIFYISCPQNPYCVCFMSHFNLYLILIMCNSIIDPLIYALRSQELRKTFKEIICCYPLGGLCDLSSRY

[3] = target: T1, hMC4-R; test: Competitive inhibition binding assay using [I125]-NDP-α-MSH, hMC4-R; conditions: membranes of HEK-293 cells expressing recombinant hMC4-R, read-out: MC4-R Ki
[4] = 0.1 ng/mL Doxycycline (low density hMC4-R system)
[5] = 10 ng/mL Doxycycline (high density hMC4-R system)

Structure (SMILES) | Ki [1] | EC50 [2, 4] | Emax [2, 4] | EC50 [2, 5] | Emax [2, 5] | Ki [3]
CC(=O)N[C@@H](CCCNC(=N)N)C(=O)N[C@H]1CCC(=O)NCCC[C@@H](C(N)=O)NC(=O)[C@H](Cc2c[nH]c3ccccc23)NC(=O)[C@H](CCCNC(=N)N)NC(=O)[C@@H](Cc2ccccc2F)NC(=O)[C@H](CO)NC1=O [Example 58, Ac-Arg-cyclo(Glu-Ser-D-Phe(2-F)-Arg-Trp-Orn)-NH2] | 138 nM | 5 nM | 67% | 0.25 nM | 100% | 
CC(=O)N[C@@H](CCCNC(=N)N)C(=O)N[C@H]1CCC(=O)NCCC[C@@H](C(=O)O)NC(=O)[C@H](Cc2c[nH]c3ccccc23)NC(=O)[C@H](CCCNC(=N)N)NC(=O)[C@@H](Cc2ccc(C#N)cc2)NC(=O)[C@H](CCC(N)=O)NC1=O [Example 86, Ac-Arg-cyclo(Glu-Gln-D-Phe(4-CN)-Arg-Trp-Orn)-OH] | 3970 nM | 9 nM | 36% |  | 96% | 
CC(=O)N[C@@H](CCCNC(=N)N)C(=O)N[C@H]1CCCNC(=O)CC[C@@H](C(N)=O)NC(=O)[C@H](Cc2c[nH]c3ccccc23)NC(=O)[C@H](CCCNC(=N)N)NC(=O)[C@@H](Cc2ccc(C#N)cc2)NC(=O)[C@H](CC(N)=O)NC1=O [Example 91, Ac-Arg-cyclo(Orn-Asn-D-Phe(4-CN)-Arg-Trp-Glu)-NH2] |  | 1 nM | 18% | 0.265 nM | 96% | 4 nM
CC(=O)N[C@@H](CCCNC(=N)N)C(=O)N[C@H]1CCC(=O)NCCC[C@@H](C(N)=O)NC(=O)[C@H](Cc2c[nH]c3ccccc23)NC(=O)[C@H](CCCNC(=N)N)NC(=O)[C@@H](Cc2ccc(F)cc2)NC(=O)[C@H](CCC(N)=O)NC1=O [Example 92, Ac-Arg-cyclo(Glu-Gln-D-Phe(4-F)-Arg-Trp-Orn)-NH2] |  | 0.1 nM | 81% |  | 89% | 2 nM
CC(=O)N[C@@H](CCCNC(=N)N)C(=O)N[C@H]1CCCCNC(=O)C[C@@H](C(N)=O)NC(=O)[C@H](Cc2c[nH]c3ccccc23)NC(=O)[C@H](CCCNC(=N)N)NC(=O)[C@@H](Cc2ccc(C#N)cc2)NC(=O)[C@H](CCC(N)=O)NC1=O [Example 93, Ac-Arg-cyclo(Lys-Gln-D-Phe(4-CN)-Arg-Trp-Asp)-NH2] (Ac-RKQ[dPhe(4-CN)]RWD-NH2; lactam 2-7) |  | 0.3 nM | 44% | 0.17 nM | 97% | 1 nM
CC(=O)N[C@@H](CCCNC(=N)N)C(=O)N[C@H]1CCC(=O)NCCC[C@@H](C(N)=O)NC(=O)[C@H](Cc2c[nH]c3ccccc23)NC(=O)[C@H](CCCNC(=N)N)NC(=O)[C@@H](Cc2cc(F)c(F)c(F)c2)NC(=O)[C@H](CC(N)=O)NC1=O [Example 95, Ac-Arg-cyclo(Glu-Asn-D-Phe(3,4,5-triF)-Arg-Trp-Orn)-NH2] |  | 1 nM | 42% | 0.125 nM | 100% | 3 nM
CC(=O)N[C@@H](CCCNC(=N)N)C(=O)N[C@H]1CCCNC(=O)CC[C@@H](C(N)=O)NC(=O)[C@H](Cc2c[nH]c3ccccc23)NC(=O)[C@H](CCCNC(=N)N)NC(=O)[C@@H](Cc2cc(F)c(F)c(F)c2)NC(=O)[C@H](CC(N)=O)NC1=O [Example 96, Ac-Arg-cyclo(Orn-Asn-D-Phe(3,4,5-triF)-Arg-Trp-Glu)-NH2] |  | 2 nM | 24% | 0.235 nM | 100% | 2 nM
CC(=O)N[C@@H](CCCNC(=N)N)C(=O)N[C@H]1CCC(=O)NCCC[C@@H](C(N)=O)NC(=O)[C@H](Cc2c[nH]c3ccccc23)NC(=O)[C@H](CCCNC(=N)N)NC(=O)[C@@H](Cc2cccc(Cl)c2)NC(=O)[C@H](CCCNC(N)=O)NC1=O [Example 99, Ac-Arg-cyclo(Glu-Arg-D-Phe(3-Cl)-Arg-Trp-Orn)-NH2] |  | 0.7 nM | 32% | 0.14 nM | 94% | 0.5 nM
CC(=O)N[C@@H](CCCNC(=N)N)C(=O)N[C@H]1CCC(=O)NCCC[C@@H](C(N)=O)NC(=O)[C@H](Cc2c[nH]c3ccccc23)NC(=O)[C@H](CCCNC(=N)N)NC(=O)[C@@H](Cc2cccc(Cl)c2)NC(=O)[C@H](CCCCN)NC1=O [Example 100, Ac-Arg-cyclo(Glu-Lys-D-Phe(3-Cl)-Arg-Trp-Orn)-NH2] (Ac-REK[dPhe(3-Cl)]RW[Orn]-NH2; lactam 2-7) |  | 6 nM | 27% |  | 93% | 4 nM
CC(=O)N[C@@H](CCCNC(=N)N)C(=O)N[C@H]1CCC(=O)NCCC[C@@H](C(N)=O)NC(=O)[C@H](Cc2c[nH]c3ccccc23)NC(=O)[C@H](CCCNC(=N)N)NC(=O)[C@@H](Cc2cccc(Cl)c2)NC(=O)[C@H](CCCN)NC1=O [Example 101, Ac-Arg-cyclo(Glu-Orn-D-Phe(3-Cl)-Arg-Trp-Orn)-NH2] |  | 0.95 nM | 36% | 0.14 nM | 93% | 1 nM
CC(=O)N[C@@H](CCCNC(=N)N)C(=O)N[C@H]1CC(=O)NCCCC[C@@H](C(N)=O)NC(=O)[C@H](Cc2c[nH]c3ccccc23)NC(=O)[C@H](CCCNC(=N)N)NC(=O)[C@@H](Cc2ccc(F)cc2)NC(=O)[C@@H]2CCCN2C1=O [Example 103, Ac-Arg-cyclo(Asp-Pro-D-Phe(4-F)-Arg-Trp-Lys)-NH2] |  | 1 nM | 32% | 0.13 nM | 100% | 4 nM
CC(=O)N[C@@H](CCCNC(=N)N)C(=O)N[C@H]1CCCNC(=O)CC[C@@H](C(N)=O)NC(=O)[C@H](Cc2c[nH]c3ccccc23)NC(=O)[C@H](CCCNC(=N)N)NC(=O)[C@@H](Cc2ccccc2F)NC(=O)[C@@H]2CCCN2C1=O [Example 105, Ac-Arg-cyclo(Orn-Pro-D-Phe(2-F)-Arg-Trp-Glu)-NH2] (Ac-R[Orn]P[dPhe(2-F)]RWE-NH2; lactam 2-7) |  | 3 nM | 35% | 0.15 nM | 94% | 7 nM
CC(=O)N[C@@H](CCCNC(=N)N)C(=O)N[C@H]1CCC(=O)NCCC[C@@H](C(N)=O)NC(=O)[C@H](Cc2c[nH]c3ccccc23)NC(=O)[C@H](CCCNC(=N)N)NC(=O)[C@@H](Cc2ccc(C#N)cc2)NC(=O)[C@H](CC(=O)O)NC1=O [Example 106, Ac-Arg-cyclo(Glu-Asp-D-Phe(4-CN)-Arg-Trp-Orn)-NH2] (Ac-RED[dPhe(4-CN)]RW[Orn]-NH2; lactam 2-7) | 10000 nM |  | 3% |  | 77% | 
CC(=O)N[C@@H](CCCNC(=N)N)C(=O)N[C@H]1CCCNC(=O)CC[C@@H](C(N)=O)NC(=O)[C@H](Cc2c[nH]c3ccccc23)NC(=O)[C@H](CCCNC(=N)N)NC(=O)[C@@H](Cc2ccccc2C)NC(=O)[C@H](CCC(N)=O)NC1=O [Example 111, Ac-Arg-cyclo(Orn-Gln-D-Phe(2-Me)-Arg-Trp-Glu)-NH2] |  |  | 81% |  | 104% | 6 nM
CC(=O)N[C@@H](CCCNC(=N)N)C(=O)N[C@H]1CCCNC(=O)CC[C@@H](C(N)=O)NC(=O)[C@H](Cc2c[nH]c3ccccc23)NC(=O)[C@H](CCCNC(=N)N)NC(=O)[C@@H](Cc2ccccc2Cl)NC(=O)[C@H](CCC(N)=O)NC1=O [Example 112, Ac-Arg-cyclo(Orn-Gln-D-Phe(2-Cl)-Arg-Trp-Glu)-NH2] |  |  | 83% | 0.07 nM | 101% | 4 nM
CC(=O)N[C@@H](CCCNC(=N)N)C(=O)N[C@H]1CCCNC(=O)CC[C@@H](C(N)=O)NC(=O)[C@H](Cc2c[nH]c3ccccc23)NC(=O)[C@H](CCCNC(=N)N)NC(=O)[C@@H](Cc2ccccc2Cl)NC(=O)[C@H](CC(N)=O)NC1=O [Example 113, Ac-Arg-cyclo(Orn-Asn-D-Phe(2-Cl)-Arg-Trp-Glu)-NH2] |  |  | 80% | 0.065 nM | 100% | 7 nM
CC(=O)N[C@@H](CCCNC(=N)N)C(=O)N[C@H]1CCC(=O)NCCC[C@@H](C(N)=O)NC(=O)[C@H](Cc2c[nH]c3ccccc23)NC(=O)[C@H](CCCNC(=N)N)NC(=O)[C@@H](Cc2ccccc2C(F)(F)F)NC(=O)[C@H](CC(N)=O)NC1=O [Example 116, Ac-Arg-cyclo(Glu-Asn-D-Phe(2-CF3)-Arg-Trp-Orn)-NH2] |  |  | 77% | 0.095 nM | 104% | 7 nM
CC(=O)N[C@@H](CCCNC(=N)N)C(=O)N[C@H]1CCCNC(=O)CC[C@@H](C(N)=O)NC(=O)[C@H](Cc2c[nH]c3ccccc23)NC(=O)[C@H](CCCNC(=N)N)NC(=O)[C@@H](Cc2ccccc2C(F)(F)F)NC(=O)[C@H](CC(N)=O)NC1=O [Example 117, Ac-Arg-cyclo(Orn-Asn-D-Phe(2-CF3)-Arg-Trp-Glu)-NH2] |  | 1 nM | 50% |  | 112% | 5 nM
